The values that follow come from patent publication US5998521A, “Aqueous fluoropolymer compositions and method of preparing the same” (3M Innovative Properties Company, priority 1996, dated 1999).

Data set [1] is described as follows: Hydrolytic stability of esters in concentrated aqueous ammonium hydroxide. To be noted: 2 days. The data set is classed as physicochemical. The text has this:
The acrylate and methacrylate esters from Examples D1-D11 were fully recoverable with essentially no degradation after being stirred with concentrated aqueous ammonium hydroxide for a period of 2 days.

Data set [2] has as its system rats. To be noted: Goeche-Flora et al.; cited from earlier work.
In data set [3] the test system is rats. Nature of the data set: Acute LD50, one-time feeding study of rats over 21 days. The data set is classed as in vivo, rat. As to conditions: for acute toxicity: rat, in vivo. As to the method:
(§1) Acute LD50 measurements for a one-time feeding study of rats were determined over a 21 day period for both the α-branched perfluorocarboxylate salt, C7 F15 CF(CF3)COO^- NH4^+, and its straight chain isomer, CF3 (CF2)8 COO^- NH4^+.

Assay in data set [4]: as above
The format is in vivo, rat. To be noted: rat, in vivo, po; one-time feeding, rats, 21 day period. As to the method:
as §1

Data set [5] in a line: Thermal degradation in aqueous media. The format is physicochemical. To be noted: for volatile products formed: aqueous, approximately 80° C. for several hours, or similar way.
Procedure: The thermal degradation of an aqueous α-branched perfluoroalkylcarbonyl fluoride and the characterization of the products produced from the degradation were carried out using the following procedure. […] 5.7 g of volatile degradation products were then collected by azeotropic distillation using a Dean-Stark apparatus.
The thermal degradation of C7 F15 CF(CF3)COF (from Example A4) dispersed in water was also carried out by heating the aqueous mixture for several hours at approximately 80° C.
Data set [6] in a line: Emulsion copolymerization of hexafluoropropylene and vinylidene fluoride. The source says:
The following procedure was used to evaluate C7 F15 CF(CF3)COO^- NH4^+ (from Ex. M1) as an emulsifier to copolymerize hexafluoropropylene (HFP) and vinylidene fluoride.
A 1 gallon, vertically agitated stainless steel reactor with pressure and temperature controls was evacuated and twice purged with nitrogen. Using an isolated vacuum, a solution comprised of 2 g of ammonium persulfate (initiator) and 6 g of dipotassium phosphate dissolved in 2800 g of deionized water was introduced into the reactor. The remaining vacuum on the reactor was vented with nitrogen, and the solution was degassed twice under agitation using alternate vacuum and nitrogen purges. A sufficient amount of a solution of C7 F15 CF(CF3)COO^- NH4^+ in approximately 20 g of 60-70° C. deionized water was introduced to the reactor under isolated vacuum to give a calculated final concentration of 350 ppm emulsifier in the aqueous solution. The reactor was vented with nitrogen, the solution was agitated very briefly, and the reactor was evacuated of nitrogen and isolated. Then the reactor was vented with hexafluoropropylene monomer to a pressure of approximately 10 psig (1280 torr total pressure), and the temperature of the batch was raised to 72° C. with high agitation. Maintaining the temperature at 72° C., a monomer mixture of 60% (wt) of vinylidene fluoride and 40% (wt) hexafluoropropylene was fed from a tared gas cylinder into the head space of the reactor to maintain a reactor pressure of 130 psig (7480 total pressure). After feeding in about 1 kg of monomer blend (approximately 3.75 hours duration), the introduction of monomer was ceased, the reaction was allowed to cool to room temperature, and any residual unreacted monomer was vented.
The resulting latex polymer was drained from the reactor, and percent solids of the latex was determined to be 25% by weight as measured by drying 10 g of latex in a forced air oven for 16 hours at 105° C.
The reactor body was separated from the reactor head, and a visual inspection of the reactor was made to determine the amount of coagulated polymer in the reactor (the amount should be minimal in a good polymerization reaction). A qualitative rating was assessed, ranging from "none" to "little" to "some."
The latex stability was determined by half filling a 16 oz (450 mL) jar with latex and shaking several hours in the horizontal position, quantitatively rating the latex after shaking using a 3-point scale ranging from 0=very stable to 3=unstable.
Particle size in the latex was determined using 90° scattering on a Coulter sub-micron particle size analyzer.
Degree of foaming was rated using the following qualitative scale: 0=not foamy, 1=slightly foamy, 2=moderately foamy, and 3=very foamy.
In Example P2, the same experiment was run as in Example P1, except that the concentration of C7 F15 CF(CF3)COO^- NH4^+emulsifier was raised to 3500 ppm, the reaction time decreased from 3.75 to 3.5 hours, and the reaction temperature increased from 72° C. to 78° C.
In Comparative Examples P3-P6, the same experiment was run as in Example P1, except that C8 F17 SO2 N(C2 H5)CH2 COO^- K^+ (Fluorad™ FC-128 Fluorochemical Surfactant, available from 3M Company, St. Paul, Minn.), C7 F15 COO^- H4 N^+ (Fluorad™ FC-143 Fluorochemical Surfactant), and Surflon™ S111S Fluorochemical Surfactant (believed to be nominally telomer-based n-C9 F19 COO^- H4 N^+, commercially available from Asahi Glass Corp., Japan) were substituted for C7 F15 CF(CF3)COO^- HN^+ emulsifier.

A short description of data set [7]: Surface tension and critical micelle concentration of aqueous surfactant solutions. The format is physicochemical. As to conditions: Table 5, deionized water; for Surf. Tens.: at the CMC. Here is the method:
Critical Micelle Concentration (CMC): The critical micelle concentration is defined as the concentration at which further surface tension is no longer lowered with increasing levels of surfactant. To determine CMC, surface tension is measured as a function of surfactant concentration using a K-12 Processor Tensiometer in conjunction with a 665 Dosimat automatic surfactant injection device (also commercially available from Kruss GmbH). Surface tension is then plotted vs. log concentration and the data points are connected. The resulting curve has a nearly horizontal flat portion at concentrations above the CMC and has a negative steep slope at concentrations below the CMC. The CMC is defined as the lowest surfactant concentration in the horizontal flat portion of the curve.
(§2) Then the critical micelle concentration (CMC) was determined for each surfactant.
as §2

Data set [8] deals with rats. Nature of the data set: Rat desiccator jar chamber test, exhaled degradation products. The format is in vivo. As to the method:
Additional biological testing of C7 F15 CF(CF3)COO^- NH4^+ in rats was conducted using the following test apparatus. An uptake desiccator jar chamber was designed with top and bottom portions, the top portion equipped with an inlet port, an outlet port, oxygen monitor and pressure gage. An oxygen gas tank supplied oxygen into the inlet port, and the oxygen level in the chamber was maintained at a normal ambient level as measured by the oxygen monitor and pressure gage. The outlet port was connected in series with a carbon dioxide scrubber and particulate filter, which in turn was connected to a loop containing a stainless steel bellows pump operating at about 2 L/min. Most of the gas in the loop was recycled into the inlet port, but about 100 mL/min was directed through a secondary loop to a gas chromatograph equipped with a 0.5 mL gas sampling loop.
A rat dosed at 500 mg/kg was placed in the bottom portion of the chamber, the top portion was attached, and the assembled chamber was placed in an ice-filled pan to allow for the condensation of water. The oxygen flow was started, and the exhaust gases were monitored for the presence of CF3 CF=CF(C6 F13) and C7 F15 CFHCF3, aqueous degradation products of C7 F15 CF(CF3)COOH, using known standards of this olefin and hydride in the gas chromatograph. […] After 24 minutes, one slight chromatographic peak was noted, corresponding to the monohydride. After 92 minutes, the peak became noticeably larger and a second peak formed, corresponding to the olefin.

Data set [9] is described as follows: Thermogravimetric analysis of neat perfluorocarboxylate salts. The format is physicochemical. As to conditions: neat salt, nitrogen, 10° C./min. The text has this: Thermal degradation measurements were made on a series of neat perfluorocarboxylate salts, including several α-branched open chain structures (Examples N2-N9), a primarily linear open chain structure (Example N10-Fluorad™ FC-143 Fluorochemical Surfactant, commercially available from 3M Company, St. Paul, Minn.), and a closed chain (i.e., cyclic) structure (Example N11--made by the electrochemical fluorination of benzoic acid and hydrolysis in the presence of KOH, as described in U.S. Pat. No. 2,567,011 (Diesslin et al.)).
The perfluorocarboxylate salts were tested using a Perkin-Elmer TGA 7 thermogravimetric analysis apparatus and a salt sample size of approximately 5 mg, a heating rate of 10° C./min, and a nitrogen gas flow rate of 40-45 mL/min. Using the TGA 7 software, the following temperatures were recorded: (1) the onset temperature of decomposition, (2) the temperature at which 50% of the sample weight was lost, and (3) the temperature at which 90% of the sample weight was lost.

Data set [10] is described as follows: Degradation in aqueous solution at room temperature over 1 year. The format is physicochemical. As to the method: The α-branched open chain ammonium salt compounds from Examples N3-N6 were dissolved in deionized water at a concentration of 5% by weight (0.5 g ammonium salt in 10 mL water) and were stored at room temperature.

Take `C=CC(=O)OCCOC(=O)C(F)(F)C(F)(F)C(F)(F)C(F)(F)C(F)(F)C(F)(F)C(F)(F)F` [C7 F15 COOCH2 CH2 OCOCH=CH2]: the hydrolytic stability result in data set [1] is “readily hydrolyzed”.

Consider `O=C(O)C(F)(F)C(F)(F)C(F)(F)C(F)(F)C(F)(F)C(F)(F)C(F)(F)C(F)(F)C(F)(F)F` [C9 F19 COO^- NH4^+, CF3 (CF2)8 COO^- NH4^+, reference compound], for which the “toxicity (literature, words)” value with rats [2] was “moderately toxic”. In addition, the “acute toxicity” value in the data set with rats [3] is on record as “moderately toxic”. The wasting syndrome entry with rats [3] (rats) is reported as “Wasting syndrome was observed”. In the data set with rats [3] (rats, LD50), the “toxicity relative to the α-branched isomer” value is given as “ca. 10 times”. The compound further displayed an LD50 at 504 h in data set [4] of 50 to 100 mg/kg.

Regarding `O=C(F)C(F)(C(F)(F)F)C(F)(F)C(F)(F)C(F)(F)C(F)(F)C(F)(F)C(F)(F)C(F)(F)F` (stereo not drawn) [Example A4, C7 F15 CF(CF3)COF], the “volatile products formed” value in data set [5] is reported as “The same volatile products were formed as in Example N1”. In addition, the “volatile degradation products collected” value in data set [5] (from 8 g, refluxed in deionized water 2 hours) came to 5.7 g. For the same compound, in [5] (in water), the “monohydride in volatile degradation products” value was determined as 85% and the “olefin in volatile degradation products” value was determined as 15%.

Consider `O=C(O)C(F)(C(F)(F)F)C(F)(F)C(F)(F)C(F)(F)C(F)(F)C(F)(F)C(F)(F)C(F)(F)F` (stereo not drawn) [Example M1, C7 F15 CF(CF3)COOH], for which, in data set [5], the “volatile products formed” value is “the same monohydride and olefin”.

As to `O=C(O)C(F)(C(F)(F)F)C(F)(F)C(F)(F)C(F)(F)C(F)(F)C(F)(F)C(F)(F)C(F)(F)F` (stereo not drawn) [Example M14, C7 F15 CF(CF3)COO^- H4 N^+], the “Latex Stability” value in data set [6] (emulsifier 350 ppm) is 2. Further, the “Latex Stability” value in data set [6] (emulsifier 3500 ppm) worked out at 0. In addition, in [7], the “Surf. Tens.” value came out at 16.5 dynes/cm and the CMC is reported as 2500 ppm. Besides, the “acute toxicity” value in the data set with rats [3] (listed as C7 F15 CF(CF3)COO^- NH4) was “relatively low toxicity”. Further, the “acute toxicity” value in the data set on rats [3] (listed as C7 F15 CF(CF3)COO^- NH4+) was “only slightly toxic”. In the data set with rats [3] (rats), the “time of deaths from toxic doses” value was 2 to 3 days, the “time until rats began regaining weight” value is reported as 3 days and the wasting syndrome result is recorded as “No wasting syndrome was noted”. Also, the LD50 at 504 h in [4] was 500 to 1000 mg/kg. Also, the “olefin and monohydride in exhaust gas” value in the data set with rats [8] (after 217 minutes) is on record as “both peaks became significantly larger”. Also, in the data set with rats [8] (initially), the “olefin and monohydride in exhaust gas” value is “no olefin or hydride were detected”. Besides, the metabolism and elimination result in the data set on rats [8] (rat) was “being metabolized by the rat to volatile metabolites which were eliminated from the rat via transpiration”. For the same compound, in the data set on rats [8] (rat dosed at 500 mg/kg), the post-exposure observation entry was “no evidence of toxicity (death) or evidence of wasting syndrome” and the “time at which monohydride peak noted in exhaust gas” value stood at 24 min. Moreover, in the data set on rats [8] (rat dosed at 500 mg/kg, monohydride peak noticeably larger), the “time at which olefin peak formed in exhaust gas” value was 92 min. In addition, in data set [9], the “Temperature for: 50% loss” value was 163 °C, the “Temperature for: 90% loss” value turned out to be 174 °C and the “Temperature for: Onset” value came out at 151 °C.

Regarding `O=C(O)C(F)(C(F)(F)F)C(F)(F)C(F)(F)C(F)(F)C(F)(F)C(F)(F)C(F)(F)C(F)(F)C(F)(F)F` (stereo not drawn) [Example M17, C8 F17 CF(CF3)COO^- H4 N^+], in data set [7], the “Surf. Tens.” value was 14.7 dynes/cm and the CMC stood at 2300 ppm. Further, in data set [9], the “Temperature for: 50% loss” value was determined as 162 °C, the “Temperature for: 90% loss” value is 184 °C and the “Temperature for: Onset” value worked out at 142 °C.

In the case of `O=C(O)C(F)(C(F)(F)F)C(F)(F)C(F)(F)C(F)(F)C(F)(F)C(F)(F)C(F)(F)C(F)(F)C(F)(F)C(F)(F)C(F)(F)F` (stereo not drawn) [Example M18, C10 F21 CF(CF3)COO^- H4 N^+], in data set [7], the “Surf. Tens.” value worked out at 14.8 dynes/cm and the CMC was 600 ppm. For the same compound, in data set [9], the “Temperature for: 50% loss” value came to 181 °C, the “Temperature for: 90% loss” value was 188 °C and the “Temperature for: Onset” value was 164 °C.

Consider `O=C(O)C(F)(C(F)(F)F)C(F)(F)C(F)(F)C(F)(F)C(F)(F)C(F)(F)F` (stereo not drawn) [Example M21, C5 F11 CF(CF3)COO^- K^+], for which, in data set [7], the “Surf. Tens.” value is reported as 22.5 dynes/cm and the CMC is on record as more than 10000 ppm. Also, in data set [9] (listed as N9), the “Temperature for: 50% loss” value worked out at 178 °C, the “Temperature for: 90% loss” value is 188 °C and the “Temperature for: Onset” value came out at 167 °C.

For `O=C(O)C(F)(F)C(F)(F)C(F)(F)C(F)(F)C(F)(F)C(F)(F)C(F)(F)F` [FC-143, C7 F15 COO^- H4 N^+], the “Latex Stability” value in data set [6] (emulsifier 350 ppm) came to 2. For the same compound, in data set [7], the “Surf. Tens.” value was determined as 21.5 dynes/cm and the CMC stood at 8000 ppm. The “degradation after 1 year” value in data set [10] is recorded as “no signs of degradation”. In [9], the “Temperature for: 50% loss” value came to 188 °C, the “Temperature for: 90% loss” value worked out at 202 °C and the “Temperature for: Onset” value amounted to 173 °C.

As to `CCN(CC(=O)O)S(=O)(=O)C(F)(F)C(F)(F)C(F)(F)C(F)(F)C(F)(F)C(F)(F)C(F)(F)C(F)(F)F` [Fluorad ™ FC-128, C8 F17 SO2 N(C2 H5)CH2 COO^- K^+], the entries for the “Latex Stability” value in data set [6] (emulsifier 100 ppm) and in [6] (emulsifier 350 ppm) were 2 and 0, respectively.
